From patent US20240293466A1, “DIFFERENTIAL CXCR4 […] HEMATOPOIETIC PROGENITOR CELLS VERSUS STEM CELLS DIRECTS HOMING AND LONG-TERM ENGRAFTMENT” (priority 2021, published 2024) come the findings set out here.

The target of experiment [1] is CXCR4 (Homo sapiens, UniProt P61073).
Description: 6- to 14-week-old NOD.Cg-Prkdc^scid Il2rg^tm1Wjl/SzJ (NSG) mice were used in UCB- and MPB-derived HSPC transplant experiments. Mice were irradiated with 280 cGy prior to transplant. For homing experiments, each mouse received 3×10^6 CD34+cells and 16-22 hours post-injection, the mice were sacrificed and bone marrow from the femurs was analyzed for human cell content. For long-term engraftment experiments, mice received limiting dilution CD34+or CD34+CD38−HSPC doses. IV injections were done by injecting HSPC in 200-250 μL via tail vein and IBM injections were done by injecting HSPC in 10 μL into the femur.
The cells were washed with PBS and transplanted into NSG mice for homing experiments.
CD34+cells were transduced with a blue fluorescent protein (BFP) encoding LV vector and the CD34+CD38+BFP+HPC were sorted by flow cytometry.
In experiment [2] the target is T1, VLA-4 (Homo sapiens, UniProt P05556+P13612).
T1 construct: endogenous in cells; host or cells: human G-CSF mobilized peripheral blood CD34+CD38+BFP+ HPC, sorted after transduction with a BFP-only LV vector
T1 sequence (P13612 34-1032): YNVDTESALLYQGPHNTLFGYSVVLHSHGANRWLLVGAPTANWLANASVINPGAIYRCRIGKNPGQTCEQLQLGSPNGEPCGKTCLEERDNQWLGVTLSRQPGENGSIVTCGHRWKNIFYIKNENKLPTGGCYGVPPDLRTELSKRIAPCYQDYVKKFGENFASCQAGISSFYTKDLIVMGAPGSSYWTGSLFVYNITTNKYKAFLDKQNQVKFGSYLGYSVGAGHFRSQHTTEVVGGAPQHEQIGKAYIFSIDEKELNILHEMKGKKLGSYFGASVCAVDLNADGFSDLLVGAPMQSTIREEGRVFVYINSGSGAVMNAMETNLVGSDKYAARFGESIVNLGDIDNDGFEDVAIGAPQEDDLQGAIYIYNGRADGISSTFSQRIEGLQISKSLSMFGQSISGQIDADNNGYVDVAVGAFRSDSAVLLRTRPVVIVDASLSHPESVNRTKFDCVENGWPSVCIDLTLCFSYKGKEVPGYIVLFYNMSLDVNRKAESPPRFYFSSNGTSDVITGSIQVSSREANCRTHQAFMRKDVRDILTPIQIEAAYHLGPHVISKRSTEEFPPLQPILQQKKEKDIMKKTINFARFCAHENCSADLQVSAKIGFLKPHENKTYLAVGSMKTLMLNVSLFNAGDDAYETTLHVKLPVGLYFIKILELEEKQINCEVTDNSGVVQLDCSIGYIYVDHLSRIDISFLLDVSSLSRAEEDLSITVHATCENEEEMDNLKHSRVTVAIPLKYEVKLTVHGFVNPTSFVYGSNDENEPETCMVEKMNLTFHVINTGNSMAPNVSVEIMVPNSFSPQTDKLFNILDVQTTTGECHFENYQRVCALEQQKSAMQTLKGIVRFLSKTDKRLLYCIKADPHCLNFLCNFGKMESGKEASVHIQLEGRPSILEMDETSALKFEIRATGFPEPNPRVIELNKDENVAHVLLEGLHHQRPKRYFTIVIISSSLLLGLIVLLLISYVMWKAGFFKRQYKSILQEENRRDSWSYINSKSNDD
T1 sequence (P05556 21-798): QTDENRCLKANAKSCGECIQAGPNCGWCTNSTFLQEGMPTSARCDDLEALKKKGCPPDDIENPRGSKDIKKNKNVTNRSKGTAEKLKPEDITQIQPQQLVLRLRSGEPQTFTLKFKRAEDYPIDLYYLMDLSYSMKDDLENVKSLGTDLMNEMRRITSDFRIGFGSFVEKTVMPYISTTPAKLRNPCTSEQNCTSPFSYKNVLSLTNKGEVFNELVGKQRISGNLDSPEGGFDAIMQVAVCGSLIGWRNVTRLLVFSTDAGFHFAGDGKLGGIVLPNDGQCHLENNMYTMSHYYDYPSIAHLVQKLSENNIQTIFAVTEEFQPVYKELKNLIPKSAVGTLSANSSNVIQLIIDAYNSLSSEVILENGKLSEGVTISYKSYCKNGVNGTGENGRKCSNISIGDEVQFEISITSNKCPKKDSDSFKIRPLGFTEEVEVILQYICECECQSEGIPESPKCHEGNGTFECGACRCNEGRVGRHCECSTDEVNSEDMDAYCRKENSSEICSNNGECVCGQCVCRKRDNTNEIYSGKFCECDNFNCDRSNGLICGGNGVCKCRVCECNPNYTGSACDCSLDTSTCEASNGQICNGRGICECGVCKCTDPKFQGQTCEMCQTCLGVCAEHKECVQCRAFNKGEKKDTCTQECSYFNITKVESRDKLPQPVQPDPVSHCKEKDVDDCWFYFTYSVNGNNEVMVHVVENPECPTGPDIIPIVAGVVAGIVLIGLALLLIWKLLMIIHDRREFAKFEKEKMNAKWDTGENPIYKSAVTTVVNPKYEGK
Description: Homing of CD34+CD38+ HPC into bone marrow of NSG mice after VLA-4 blockade. In kind it is in vivo. Particulars: IV or IBM delivery; HPC pre-treated with 1 μM BIO5192. On the procedure:
(§1) Mice were irradiated with 280 cGy prior to transplant.
CD34+HSPC were resuspended in PBS containing 1 μM BIO5192 (Tocris, 5051) and incubated on ice for 20 minutes.

The subject of experiment [3] is MPB CD34+ HSPC / CD34+CD38- cells. Nature of the experiment: Gene transfer efficiency of LV vectors in HSPC. In kind it is cell-based, human. On the procedure:
UCB and G-CSF MPB were obtained and CD34+HSPC were isolated by magnetic selection with Indirect CD34 Microbead kit, human (Miltenyi, 130-046-701). CD34+purity was >95% as confirmed by flow cytometry. CD34+CD38−cells were isolated from G-CSF MPB by magnetic selection with CD34+CD38−Isolation Kit, human (Miltenyi, 130-114-822) and cryopreserved. Thawed CD34+ or CD34+CD38−cells were cultured in X-VIVO 10 (Lonza BE02-055Q) or SCGM (CellGenix 20806-0500) supplemented with 2% human serum albumin, 100 ng/mL TPO, 300 ng/mL SCF, and 300 ng/mL FLT3-L (all cytokines purchased from Peprotech) at a cell density of 2-5×10^6 CD34+cells/mL. Media was supplemented with Birb 796 (600 nM) (Selleckchem) throughout culture and Prostaglandin E2 (10 μM) (Cayman) at plating, transduction, and 1 hour before harvest. Cells were transduced with a lentiviral vector in culture for 36-42 hours where indicated. CD34+HSPC were transduced at a final concentration of 5×10^7-1×10^8 IU/mL. Following culture, CD34+HSPC were harvested and washed with PBS, resuspended in PBS, and used in in vivo or in vitro experiments, as described below.

For experiment [4], the system named is CD34+CD38- HSC-enriched cells. Nature of the experiment: Long-term (24 week) engraftment of transduced CD34+CD38- cells in NSG mice. In kind it is in vivo, human. Conditions: 24 weeks.
Excerpt: as §1
At 12 weeks following transplant, bone marrow was harvested via aspirate of the femur for in vivo engraftment analysis. For animals that received IBM injections into one femur, the non-injected alternate femur was aspirated. For 24 week and homing analysis, mice were sacrificed, and bone marrow was harvested from both the rear and forelimbs. Cells were stained fresh with the following antibodies: PerCP anti-human CD45 (BioLegend 304026), Anti-human CD33 PE-Cy7 (eBioscience 25-0338-42), APC-Cy7 Mouse Anti-Human CD19 (BD 557791), Anti-Human CD3 PE (BD BioSciences 555340), and APC Mouse Anti-Human CD34 (BD BioScience 555824). Red bloods cells were lysed after staining using red blood cell lysis buffer.
Next, CD34+CD38−HSC-enriched cells were sorted, transduced with GFP LV^CXCR4 vector or GFP LV control vector, and transplanted them IV or IBM in two limiting dilutions to irradiated NSG mice to assess engraftment of the long-term repopulating HSC at 6 months post-transplant (FIG. 5F-5G). […] The slightly higher engraftment of untransduced IV transplanted cells (FIGS. 5F and 10C) was likely because LV preparations often contain some defective viral particles, which, like VLP, would deliver CXCR4 protein but not result in an effective transduction (transgene transfer or GFP+cells). […]

Experiment [5] has as its system CD34+CD38- HSC-enriched cells. Description: CXCR4 expression (flow cytometry MFI) on sorted transduced cells at time of transplant. In kind it is cell-based, human. Particulars: CD34+CD38-BFP+ cells, 72 hours after gene transfer. From the text:
All LV vectors were packaged using the Gag-Pol, Rev and VSV-G envelope plasmids. All vectors were under the control of the MNDU3 promoter. The GFP LV construct was pRRL.SIN.cPPT.MNDU3.eGFP.WPRE. The BFP LV construct was designed by replacing the GFP cDNA in pRRL.SIN.cPPT.MNDU3.eGFP.WPRE.with mTag2BFP. The BFP-CXCR4 LV was pRRL.SIN.cPPT.MNDU3.mTag2BFP-CXCR4.WPRE. All lentiviral vectors were packaged in HEK 293T (ATCC) cells and vector titers determined in the murine erythroleukemia (MEL) (ATCC) cells as previously described (Perumbeti et al., Blood, 2009; Urbinati et al., Mol Ther, 2009; Arumugam et al., Mol Ther, 2009). […]
An alternative explanation for the competitive homing and engraftment advantage of HPC could be that they comprise the vast majority of CD34+HSPC (98-99%), while HSC are a small minority. It was experimentally conferred the HSC-enriched CD34+CD38− population with slightly higher CXCR4 expression than the CD34+CD38+HPC and assessed homing (FIG. 3D). […] CXCR4 expression on these populations was assessed before transplant. […] The sorted BFP-HPC population was then mixed with the BFP+CD34+CD38−CXCR4^high HSC-enriched cell population in ratios seen in CD34+HSPC prior to sorting, and transplanted them either IV or IBM, and homing of the CD34+CD38−BFP+CXCR4^high HSC-enriched cells was assessed. […]

The subject of experiment [6] is CD34+CD38- HSC-enriched cells. Description: Homing of CD34+CD38-BFP+ cells mixed with CD34+CD38+ HPC in NSG mice. In kind it is in vivo, human. Particulars: 20-22 hours.
Excerpt: as §1
An alternative explanation for the competitive homing and engraftment advantage of HPC could be that they comprise the vast majority of CD34+HSPC (98-99%), while HSC are a small minority. It was experimentally conferred the HSC-enriched CD34+CD38− population with slightly higher CXCR4 expression than the CD34+CD38+HPC and assessed homing (FIG. 3D). The CD34+HSPC were transduced with a BFP-CXCR4-encoding LV vector or a BFP-encoding LV control vector and CD34+CD38−BFP+HSC-enriched cells were sorted along with untransduced CD34+CD38+BFP−HPC. CXCR4 expression on these populations was assessed before transplant. In control cells, CXCR4 expression on the more primitive CD34+CD38−cells was much lower (MFI 16,930) than on CD34+CD38+HPC (MFI 35,098) (FIG. 3E), consistent with prior data (see, e.g., FIG. 2D). […] The sorted BFP-HPC population was then mixed with the BFP+CD34+CD38−CXCR4^high HSC-enriched cell population in ratios seen in CD34+HSPC prior to sorting, and transplanted them either IV or IBM, and homing of the CD34+CD38−BFP+CXCR4^high HSC-enriched cells was assessed. Control CD34+CD38−BFP+cells were also mixed with CD34+CD38+BFP−HPC and transplanted IV or IBM (FIG. 3D) and their homing into bone marrow was assessed. […]

CXCR4, sequence (P61073 whole entry): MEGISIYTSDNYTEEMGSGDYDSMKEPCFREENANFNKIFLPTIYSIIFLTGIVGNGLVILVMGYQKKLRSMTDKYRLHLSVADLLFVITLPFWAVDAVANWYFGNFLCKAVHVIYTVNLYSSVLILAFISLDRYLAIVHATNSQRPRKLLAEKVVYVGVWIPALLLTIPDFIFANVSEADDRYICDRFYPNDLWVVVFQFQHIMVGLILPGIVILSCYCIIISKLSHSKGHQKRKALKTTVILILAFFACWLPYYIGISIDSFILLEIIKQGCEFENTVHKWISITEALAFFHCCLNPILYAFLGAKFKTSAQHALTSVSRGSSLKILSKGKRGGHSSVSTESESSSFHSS

`c1cc(CN2CCCNCCNCCCNCC2)ccc1CN1CCCNCCNCCCNCC1` [AMD3100]: the “human HPC content in the injected femur (IF)” value in experiment [1] (IBM delivery, CD34+CD38+BFP+ HPC pre-treated with 100 ug/mL AMD3100, reduced to homing levels of IV delivery or nonIF) is listed as “significantly reduced”. Also, the “homing of IV injected cells” value in experiment [1] (IV delivery, HPC pre-treated with AMD3100) is on record as “note blocked”.
As for `Cc1ccccc1NC(=O)Nc1ccc(CC(=O)N(C)[C@@H](CC(C)C)C(=O)NCC[C@H](NC(=O)[C@@H]2CCCN2S(=O)(=O)c2cc(Cl)cc(Cl)c2)C(=O)O)cc1` [BIO5192], in experiment [2], the “CD34+38+ HPC homing pattern vs corresponding controls” value is listed as “did not alter”.
pRRL.SIN.cPPT.MNDU3.eGFP.WPRE [GFP LV] registered a gene transfer efficiency in experiment [3] (CD34+CD38- HSC-enriched cells, experiment of FIG. 4) of 69%. Further, the gene transfer in experiment [3] (CD34+CD38- cells, homing/engraftment experiment of FIGS. 5 and 10) is on record as 60%; in experiment [3] (MPB CD34+HSPC, experiment of FIG. 1), 63-66%. Besides, the lineage repopulation entry in experiment [4] is “full multilineage repopulation”.
Consider “pRRL.SIN.cPPT.MNDU3.mTag2BFP-CXCR4.WPRE [BFP-CXCR4 LV vector]”, for which the “CXCR4 expression MFI” value in experiment [5] is given as 37,453. Also, the “homing of CD34+CD38- cells to bone marrow” value in experiment [6] (IV administration, mixed with majority of CD34+38+ HPC) is given as “higher homing levels”; in experiment [6] (direct IBM transplantation, mixed with majority of HPC), “remarkably improved homing advantage”.
